From patent US20080274892A1, “Novel Haloalkylsulfonanilide Derivative, Herbicide, and Method of Use Thereof” (priority 2005, published 2008)

What was measured:
bulrush [1] = assay: Test Example 2: herbicidal efficacy on rice paddy weeds post-emergence; assay type: in vivo, Scirpus juncoides; settings: post-emergence, one leaf stage, 21 days after treatment
bulrush [2] = assay: Test Example 1: herbicidal efficacy on rice paddy weeds pre-emergence; assay type: in vivo, Scirpus juncoides; settings: 21 days
[3] = system: paddy rice plant (cultivar: Nihonbare); assay: Test Example 3: phytotoxicity test for transplanted paddy rice plant; assay type: in vivo; settings: transplanted rice, 21 days after treatment
Summary of the method: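 Clay loam soil was placed in a 75 cm^2 plastic pot and flooded to a water depth of 5 cm. Two Nihonbare paddy rice plants at the two-leaf stage were transplanted 1 cm deep and grown in a hot house. After treatment, pots stayed in the hot house for 21 days, and phytotoxicity was then graded against an untreated control.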

barnyard glass = assay: Test Example 2: herbicidal efficacy on rice paddy weeds post-emergence; assay type: in vivo, Echinochloa crus-galli; settings: post-emergence, one leaf stage, 21 days after treatment
Text: The standard of judgment for herbicidal efficacy (degree of growth inhibition) and phytotoxicity 4 . . . 90%-100% of herbicidal efficacy or phytotoxicity 3 . . . 70%-89% of herbicidal efficacy or phytotoxicity 2 . . . 40%-69% of herbicidal efficacy or phytotoxicity 1 . . . 1%-39% of herbicidal efficacy or phytotoxicity 0 . . . 0% of herbicidal efficacy or phytotoxicity
A 75 cm^2 plastic pot was filled with soil (clay loam) and planted seeds of barnyard glass and bulrush which is a rice paddy weed. After covering the top with 75 cm^3 soil mixed with seeds of false pimpernel, the pot was filled with water so that the soil submerged under 5 cm depth of water and kept in a hot house. […] The pot was kept in a hot house for 21 days after the treatment and the herbicidal efficacy was investigated and evaluated according to the standard in Test Example 1 by comparing with the untreated control. “-” in the table represents test not done.

false pimpernel [4] = assay: as above; assay type: in vivo, Lindernia pyxidaria; settings: post-emergence, one leaf stage, 21 days after treatment
false pimpernel [5] = assay: Test Example 1: herbicidal efficacy on rice paddy weeds pre-emergence; assay type: in vivo, Lindernia pyxidaria; settings: 21 days
[6] = dosage 1000 g/ha, treated 5 days after transplantation

Row | Compound | Bulrush post (herbicidal efficacy grade) (bulrush [1]; dosage 300 g/ha) | Bulrush pre (herbicidal efficacy grade) (bulrush [2]; dosage 300 g/ha) | Phytotoxicity to paddy rice ([3]; dosage 300 g/ha) | Burnyard grass post (herbicidal efficacy grade) (barnyard glass; dosage 300 g/ha) | False pimpernel post (herbicidal efficacy grade) (false pimpernel [4]; dosage 300 g/ha) | False pimpernel pre (herbicidal efficacy grade) (false pimpernel [5]; dosage 300 g/ha) | Bulrush post (herbicidal efficacy grade) (bulrush [1]; dosage 1000 g/ha) | Bulrush pre (herbicidal efficacy grade) (bulrush [2]; dosage 1000 g/ha) | Phytotoxicity to paddy rice [3, 6] | Burnyard grass post (herbicidal efficacy grade) (barnyard glass; dosage 1000 g/ha) | False pimpernel post (herbicidal efficacy grade) (false pimpernel [4]; dosage 1000 g/ha) | False pimpernel pre (herbicidal efficacy grade) (false pimpernel [5]; dosage 1000 g/ha)
1 | CC(=O)OCC1CN(Cc2ccccc2NS(=O)(=O)C(F)(F)F)C(=O)O1 (stereo not drawn) [Compound 1-37] | 0 (0% of herbicidal efficacy or phytotoxicity) | 0 (0% of herbicidal efficacy or phytotoxicity) | 0 (0% of herbicidal efficacy or phytotoxicity) | 0 (0% of herbicidal efficacy or phytotoxicity) | 3 (70%-89% of herbicidal efficacy or phytotoxicity) | 1 (1%-39% of herbicidal efficacy or phytotoxicity) | – | – | – | – | – | –
2 | CC(=O)OCC1CN(Cc2ccccc2N(C(=O)OCC(C)C)S(=O)(=O)C(F)(F)F)C(=O)O1 (stereo not drawn) [Compound 1-38] | 3 (70%-89% of herbicidal efficacy or phytotoxicity) | 3 (70%-89% of herbicidal efficacy or phytotoxicity) | 0 (0% of herbicidal efficacy or phytotoxicity) | 1 (1%-39% of herbicidal efficacy or phytotoxicity) | 1 (1%-39% of herbicidal efficacy or phytotoxicity) | 2 (40%-69% of herbicidal efficacy or phytotoxicity) | – | – | – | – | – | –
3 | O=C1OC(CCl)CN1Cc1ccccc1NS(=O)(=O)C(F)(F)F (stereo not drawn) [Compound 1-39] | – | – | – | – | – | – | 4 (90%-100% of herbicidal efficacy or phytotoxicity) | 4 (90%-100% of herbicidal efficacy or phytotoxicity) | 0 (0% of herbicidal efficacy or phytotoxicity) | 2 (40%-69% of herbicidal efficacy or phytotoxicity) | 4 (90%-100% of herbicidal efficacy or phytotoxicity) | 4 (90%-100% of herbicidal efficacy or phytotoxicity)
4 | O=C1OC(c2ccccc2)CN1Cc1ccccc1NS(=O)(=O)C(F)(F)F (stereo not drawn) [Compound 1-41] | – | – | – | – | – | – | 3 (70%-89% of herbicidal efficacy or phytotoxicity) | 4 (90%-100% of herbicidal efficacy or phytotoxicity) | 1 (1%-39% of herbicidal efficacy or phytotoxicity) | 4 (90%-100% of herbicidal efficacy or phytotoxicity) | 2 (40%-69% of herbicidal efficacy or phytotoxicity) | 4 (90%-100% of herbicidal efficacy or phytotoxicity)
5 | CC(C)COC(=O)N(c1ccccc1CN1CC(c2ccccc2)OC1=O)S(=O)(=O)C(F)(F)F (stereo not drawn) [Compound 1-42] | – | – | – | – | – | – | 3 (70%-89% of herbicidal efficacy or phytotoxicity) | 3 (70%-89% of herbicidal efficacy or phytotoxicity) | 0 (0% of herbicidal efficacy or phytotoxicity) | 4 (90%-100% of herbicidal efficacy or phytotoxicity) | 3 (70%-89% of herbicidal efficacy or phytotoxicity) | 4 (90%-100% of herbicidal efficacy or phytotoxicity)
6 | O=C1OC2(CCCCC2)CN1Cc1ccccc1NS(=O)(=O)C(F)(F)F [Compound 1-45] | – | – | – | – | – | – | 4 (90%-100% of herbicidal efficacy or phytotoxicity) | 4 (90%-100% of herbicidal efficacy or phytotoxicity) | 2 (40%-69% of herbicidal efficacy or phytotoxicity) | 4 (90%-100% of herbicidal efficacy or phytotoxicity) | 4 (90%-100% of herbicidal efficacy or phytotoxicity) | 4 (90%-100% of herbicidal efficacy or phytotoxicity)
7 | O=C1OC2CCCCC2N1Cc1ccccc1NS(=O)(=O)C(F)(F)F (stereo not drawn) [Compound 1-47] | – | – | – | – | – | – | 4 (90%-100% of herbicidal efficacy or phytotoxicity) | 4 (90%-100% of herbicidal efficacy or phytotoxicity) | 2 (40%-69% of herbicidal efficacy or phytotoxicity) | 4 (90%-100% of herbicidal efficacy or phytotoxicity) | 4 (90%-100% of herbicidal efficacy or phytotoxicity) | 4 (90%-100% of herbicidal efficacy or phytotoxicity)
8 | CC[C@H]1CN(Cc2ccccc2NS(=O)(=O)C(F)(F)F)C(=O)O1 [Compound 1-55] | – | – | – | – | – | – | 4 (90%-100% of herbicidal efficacy or phytotoxicity) | 4 (90%-100% of herbicidal efficacy or phytotoxicity) | 1 (1%-39% of herbicidal efficacy or phytotoxicity) | 4 (90%-100% of herbicidal efficacy or phytotoxicity) | 4 (90%-100% of herbicidal efficacy or phytotoxicity) | 4 (90%-100% of herbicidal efficacy or phytotoxicity)
9 | CC[C@H]1CN(Cc2ccccc2N(C(=O)OCC(C)C)S(=O)(=O)C(F)(F)F)C(=O)O1 [Compound 1-56] | 4 (90%-100% of herbicidal efficacy or phytotoxicity) | 4 (90%-100% of herbicidal efficacy or phytotoxicity) | 1 (1%-39% of herbicidal efficacy or phytotoxicity) | 4 (90%-100% of herbicidal efficacy or phytotoxicity) | 3 (70%-89% of herbicidal efficacy or phytotoxicity) | 4 (90%-100% of herbicidal efficacy or phytotoxicity) | – | – | – | – | – | –
10 | CC(C)(C)C1(C)CN(Cc2ccccc2NS(=O)(=O)C(F)(F)F)C(=O)O1 (stereo not drawn) [Compound 1-69] | 4 (90%-100% of herbicidal efficacy or phytotoxicity) | 4 (90%-100% of herbicidal efficacy or phytotoxicity) | 1 (1%-39% of herbicidal efficacy or phytotoxicity) | 3 (70%-89% of herbicidal efficacy or phytotoxicity) | 4 (90%-100% of herbicidal efficacy or phytotoxicity) | 4 (90%-100% of herbicidal efficacy or phytotoxicity) | – | – | – | – | – | –
11 | CC(C)COC(=O)N(c1ccccc1CN1CC(C)(C(C)(C)C)OC1=O)S(=O)(=O)C(F)(F)F (stereo not drawn) [Compound 1-70] | – | – | – | – | – | – | 4 (90%-100% of herbicidal efficacy or phytotoxicity) | 4 (90%-100% of herbicidal efficacy or phytotoxicity) | 1 (1%-39% of herbicidal efficacy or phytotoxicity) | 4 (90%-100% of herbicidal efficacy or phytotoxicity) | 4 (90%-100% of herbicidal efficacy or phytotoxicity) | 4 (90%-100% of herbicidal efficacy or phytotoxicity)
12 | CC1(C)OC(=O)N(Cc2ccccc2NS(=O)(=O)C(F)(F)F)C1(C)C [Compound 1-73] | – | – | – | – | – | – | 4 (90%-100% of herbicidal efficacy or phytotoxicity) | 4 (90%-100% of herbicidal efficacy or phytotoxicity) | 4 (90%-100% of herbicidal efficacy or phytotoxicity) | 4 (90%-100% of herbicidal efficacy or phytotoxicity) | 4 (90%-100% of herbicidal efficacy or phytotoxicity) | 4 (90%-100% of herbicidal efficacy or phytotoxicity)
13 | CC(C)COC(=O)N(c1ccccc1CN1C(=O)OC(C)(C)C1(C)C)S(=O)(=O)C(F)(F)F [Compound 1-74] | – | – | – | – | – | – | 4 (90%-100% of herbicidal efficacy or phytotoxicity) | 4 (90%-100% of herbicidal efficacy or phytotoxicity) | 4 (90%-100% of herbicidal efficacy or phytotoxicity) | 4 (90%-100% of herbicidal efficacy or phytotoxicity) | 4 (90%-100% of herbicidal efficacy or phytotoxicity) | 4 (90%-100% of herbicidal efficacy or phytotoxicity)
14 | CC1N(Cc2ccccc2NS(=O)(=O)C(F)(F)F)C(=O)OC1(C)C (stereo not drawn) [Compound 1-96] | – | – | – | – | – | – | 4 (90%-100% of herbicidal efficacy or phytotoxicity) | 4 (90%-100% of herbicidal efficacy or phytotoxicity) | 3 (70%-89% of herbicidal efficacy or phytotoxicity) | 4 (90%-100% of herbicidal efficacy or phytotoxicity) | 4 (90%-100% of herbicidal efficacy or phytotoxicity) | 4 (90%-100% of herbicidal efficacy or phytotoxicity)
